Values quoted from earlier work as cited in US20020177579A1, “Extended release formulation of water-soluble drugs” (priority 2000, published 2002).
Where a name gives a salt, the structure may show the parent alone.

What was measured:
[1] = for Fraction Absorbed: in vivo

SMILES	Fraction Absorbed [1]	Solubility (in words)	other results
CCOC(=O)[C@H](CCc1ccccc1)N[C@H]1CCc2ccccc2N(CC(=O)O)C1=O.Cl [Benazepril HCI]	37%		Solubility: >100 mg/mL
COc1ccc([C@@H]2Sc3ccccc3N(CCN(C)C)C(=O)[C@@H]2OC(C)=O)cc1 [Diltiazem hydrochloride, 1,5-benzothiazepin-4 (5H) one, 3-(acetyloxy)-5-[2-(dimethylamino)ethyl]-2,3-dihydro-2-(4-methoxyphenyl)-, monohydrochloride, (+)-cis-4]			solubility in 100% ethanol (100% ethanol): slightly soluble; solubility in benzene (benzene): not soluble; solubility in chloroform (chloroform): freely soluble; solubility in methanol (methanol): freely soluble; solubility in water (water): freely soluble; absolute bioavailability ([1]; compared to intravenous administration): about 40%
CN1C2CCCC1CC(NC(=O)c1nn(C)c3ccccc13)C2 (centres unmarked) [Granisetron HCI]	˜90%	“Readily	
COCCc1ccc(OCC(O)CNC(C)C)cc1 (centres unmarked) [Metoprolol Succinate]		“Freely	
CCOC(=O)[C@H](CCc1ccccc1)N[C@@H](C)C(=O)N1Cc2ccccc2C[C@H]1C(=O)O [Quinapril HCI]	60%	“Freely	

Further lines, with some results ahead:

Fraction Absorbed [1]	Solubility (in words)	SMILES	other results
36%		CCC(=O)O[C@@H](O[P@](=O)(CCCCc1ccccc1)CC(=O)N1C[C@H](C2CCCCC2)C[C@H]1C(=O)O)C(C)C [Fosinopril Sodium]	Solubility: 100 mg/mL
15%	“Readily	CNS(=O)(=O)Cc1ccc2[nH]cc(CCN(C)C)c2c1 [Sumatriptan Succinate]	
